Literature values, collected in patent US20130116279A1, “BICYCLIC HETEROARYL INHIBITORS OF PDE4” (KALYPSYS, INC., priority 2011, published 2013).

System: recombinant human PDE4
Conditions: inhibiting recombinant human PDE4, reported

IC50: ~0.2 µM
Compound: COc1ccc(C2CNC(=O)C2)cc1OC1CCCC1 (stereo not shown) [rolipram]
